{"source": "patent US7176281B2", "about": "(priority 2003, dated 2007)", "key": {"[1]": {"target": "T1, 100-kDa human recombinant cytosolic form of PLA2 (cPLA2) (Homo sapiens, UniProt P47712)", "T1 sequence (P47712 1-749)": "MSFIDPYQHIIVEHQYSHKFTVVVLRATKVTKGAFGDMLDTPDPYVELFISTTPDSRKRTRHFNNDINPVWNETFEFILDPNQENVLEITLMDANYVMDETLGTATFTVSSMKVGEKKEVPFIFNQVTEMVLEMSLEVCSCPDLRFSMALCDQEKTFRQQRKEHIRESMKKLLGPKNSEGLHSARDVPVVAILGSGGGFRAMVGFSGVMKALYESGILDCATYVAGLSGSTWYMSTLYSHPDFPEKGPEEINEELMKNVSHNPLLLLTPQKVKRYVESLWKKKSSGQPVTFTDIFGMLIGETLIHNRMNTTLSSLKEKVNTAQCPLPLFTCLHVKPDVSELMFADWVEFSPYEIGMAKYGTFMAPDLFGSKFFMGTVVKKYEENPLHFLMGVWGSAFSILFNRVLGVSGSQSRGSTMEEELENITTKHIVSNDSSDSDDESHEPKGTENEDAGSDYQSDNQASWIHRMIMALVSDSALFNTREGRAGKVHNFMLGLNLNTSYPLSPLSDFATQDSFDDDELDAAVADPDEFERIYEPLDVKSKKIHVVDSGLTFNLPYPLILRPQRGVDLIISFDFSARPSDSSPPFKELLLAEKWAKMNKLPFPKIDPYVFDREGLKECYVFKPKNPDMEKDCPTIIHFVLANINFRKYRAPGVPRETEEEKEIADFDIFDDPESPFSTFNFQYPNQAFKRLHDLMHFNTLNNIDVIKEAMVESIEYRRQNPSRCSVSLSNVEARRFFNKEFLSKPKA", "experiment": "PLA2 inhibition, E. coli membrane assay, cPLA2", "type": "biochemical", "settings": "inhibition"}, "[2]": {"test_system": "Tg197 transgenic mice (chronic inflammatory polyarthritis)", "experiment": "Tg197 transgenic mouse arthritis model, experiment 1 (5 weeks)", "type": "in vivo", "settings": "for % of total joints, AS (1) / % of total joints, AS (1.5–2): 5 week post-treatment; for % of total at indicated HS scores, HS 2 / % of total at indicated HS scores, HS 3 / % of total at indicated HS scores, HS 4 / Mean HS ± SEM: 5 weeks", "experimental": "The candidate peptide P-NT.II was dissolved in dimethyl sulfoxide (DMSO) at a final concentration of 3 mg/mL. Two sets of experiments were conducted. In Experiment 1 (n=28 Transgenic (Tg197)+7 wild type (wt), peptide-treated animals (Group B) received intra-peritoneal (i.p) injections of 10 mg/kg, thrice weekly for 5 consecutive weeks, while the vehicle controls (Group E) were injected with DMSO (3 mL/kg) only. Non-transgenic (wild type) mice in different groups (C, D) were similarly treated either with the same i.p dose of peptide or DMSO. At the end of the experiment following 5 weeks of peptide injection, each Tg197 mice received a total dose of 1.8 mg of peptide P-NT.II (0.9 μmole).\n(§1) Disease monitoring was done by gross observations based on body weight measurements and arthritis scoring, which were done twice weekly after treatment until all the animals were sacrificed at 5th week in experiment 1, or at 4th week in experiment 2. Arthritis score (AS) was recorded on both ankle joints, and average scores as shown below were taken: • 0=no arthritis (normal appearance and flexion); • 0.5=onset of arthritis (mild joint swelling); • 1.0=mild arthritis (joint distortion); • 1.5=as above+finger deformation, less strength on flexion; • […]=moderate arthritis (severe swelling, joint deformation, no strength on flexion); • 2.5=as above+finger deformation in paws; • 3.0=heavy arthritis (ankylosis detected on flexion and severely impaired movement).\n(§2) For histopathological scoring, both hind legs were dissected and fixed in 10% formaldehyde overnight, decalcified in citrate-buffered formic acid for 3 days at 4° C., and processed for light microscopy (LM). • Histopathological score (HS) was evaluated as follows: • 0=no detectable pathology, • 1=hyperplasia of the synovial membrane and presence of polymorphonuclear infiltrates • 2=pannus and fibrous tissue formation and focal subchondrial bone erosion • 3=articular cartilage destruction and bone erosion • 4=articular cartilage destruction and extensive bone erosion.\n(§3) Anti-inflammatory activity of the candidate peptide P-NT.II was examined as a new treatment option for modulating rheumatoid arthritis (RA) in a transgenic animal model. To evaluate the potential effectiveness of the peptide as prophylaxis against RA, two separate experiments were performed in 4 week-old transgenic (Tg197) mice and non-transgenic wild-type (wt) mice. These transgenic mice (Tg197) express human tumor necrosis factor (TNFα), a cytokine which has been implicated in the pathogenesis of human RA."}, "[3]": {"test_system": "Tg197 transgenic mice (chronic inflammatory polyarthritis)", "experiment": "Tg197 transgenic mouse arthritis model, experiment 2 (4 weeks, time course)", "type": "in vivo", "experimental": "In experiment 2, mice were divided into 6 groups (A–F), and were injected i.p with 3 weekly doses (150 μg peptide in 50 μL DMSO per dose) of either the test peptide P-NT.II or the control peptide with the scrambled sequence for 4 consecutive weeks. Tg197 mice in Group B (n=18) were further divided into 4 sub-groups (B1, B2, B3, B4). At the end of 1st week, four Tg197 mice from Group B (sub-group B1) were sacrificed and both hind legs taken for histological processing and scorings. The remaining Tg197 mice from the other sub-groups B were continued with 3 regular doses of injections per week, and four Tg197 mice from each sub-group B2 and B3, were sacrificed at the end of 2nd and 3rd weeks, respectively. At the end of 4th week, all remaining Tg197 mice ([…]) were sacrificed for collection of joint specimens.\nas §1, §2\nTransmission electron microscopy (TEM): Ankle joints dissected from the left hind leg of each mouse were split open longitudinally through the midline between the tibia and the talus, prefixed overnight with 2.5% glutaraldehyde in phosphate buffer, pH 7.4 (PB) and rinsed with PB. After fixing with 1% osmium tetroxide in PB for 2 h, they were dehydrated in a graded series of ethanol and processed into Araldite. Semi-thin sections (1.0μ) were cut and stained with methylene blue to observe the orientation and for histopathological scorings under the light microscope. Ultra-thin sections (80–90 nm) were then cut with an ultramicrotome (Riechert-Jung Ultracut E), mounted on copper grids, counterstained with uranyl acetate and lead citrate, and evaluated under electron microscope (CM120 Biotwin, FEI Company).\nas §3"}}, "note": "Where a SMILES comes first, the peptide text is derived from it.", "data": [{"smiles": "CC[C@H](C)[C@H](NC(=O)[C@H](Cc1ccc(O)cc1)NC(=O)[C@@H](NC(=O)CNC(=O)[C@H](CC(=O)O)NC(=O)[C@H](Cc1c[nH]c2ccccc12)NC(=O)[C@@H](NC(=O)[C@H](Cc1c[nH]cn1)NC(=O)[C@@H](NC(=O)[C@H](CC(=O)O)NC(=O)[C@@H](NC(=O)[C@H](CCCNC(=N)N)NC(=O)CNC(=O)[C@@H](N)CC(C)C)C(C)C)[C@@H](C)CC)C(C)C)C(C)C)C(=O)N[C@@H](CCCNC(=N)N)C(=O)NCC(=O)N[C@@H](CCCNC(=N)N)C(=O)O", "note": "[P-NT.II] (H-LGRVDIHVWDGVYIRGR-OH; N-terminus and C-terminus assumed)", "values": [{"measurement": "selectivity for sPLA2 over cPLA2", "setting": "[1]", "value": "five-fold"}, {"measurement": "% of total joints, AS (1)", "setting": "[2]; 4 M + 3 F, 14 joints", "value": 50, "unit": "%"}, {"measurement": "% of total joints, AS (1.5–2)", "setting": "[2]; 4 M + 3 F, 14 joints", "value": 50, "unit": "%"}, {"measurement": "% of total at indicated HS scores, HS 2", "setting": "[2]; 4 M + 3 F, 14 joints", "value": 35.7, "unit": "%"}, {"measurement": "% of total at indicated HS scores, HS 3", "setting": "[2]; 4 M + 3 F, 14 joints", "value": 64.3, "unit": "%"}, {"measurement": "% of total at indicated HS scores, HS 4", "setting": "[2]; 4 M + 3 F, 14 joints", "value": 0, "unit": "%"}, {"measurement": "Mean HS ± SEM", "setting": "[2]; 4 M + 3 F, 14 joints", "value": "2.71 ± 0.15"}, {"measurement": "% of total at indicated HS scores, HS 2", "setting": "[2]; 4 M, 8 joints, 10 mg/kg i.p. thrice weekly", "value": 62.5, "unit": "%"}, {"measurement": "% of total joints, AS (1)", "setting": "[2]; 4 M, 8 joints", "value": 87, "unit": "%"}, {"measurement": "% of total joints, AS (1.5–2)", "setting": "[2]; 4 M, 8 joints", "value": 13, "unit": "%"}, {"measurement": "% of total at indicated HS scores, HS 3", "setting": "[2]; 4 M, 8 joints", "value": 37.5, "unit": "%"}, {"measurement": "% of total at indicated HS scores, HS 4", "setting": "[2]; 4 M, 8 joints", "value": 0, "unit": "%"}, {"measurement": "Mean HS ± SEM", "setting": "[2]; 4 M, 8 joints", "value": "2.37 ± 0.18"}, {"measurement": "effect of peptide on joint damage", "setting": "[2]; females, P>0.05", "value": "less evident"}, {"measurement": "histological scores compared with untreated or DMSO-treated groups", "setting": "[2]; male Tg197 mice, P<0.001", "value": "significantly lower histological scores"}, {"measurement": "histological scores compared with untreated or DMSO-treated mice", "setting": "[2]; males + females, P<0.05", "value": "significantly lower histological scores"}, {"measurement": "% of total at indicated HS scores, HS 2", "setting": "[3]; 1 wk treatment", "value": 100, "unit": "%"}, {"measurement": "% of total at indicated HS scores, HS 3", "setting": "[3]; 1 wk treatment", "value": 0, "unit": "%"}, {"measurement": "% of total at indicated HS scores, HS 4", "setting": "[3]; 1 wk treatment", "value": 0, "unit": "%"}, {"measurement": "Mean HS ± SEM", "setting": "[3]; 1 wk treatment", "value": "2.12 ± 0.12"}, {"measurement": "HS compared to untreated or scrambled peptide treated group", "setting": "[3]; 1–4 weeks", "value": "significantly reduced HS"}, {"measurement": "ultrastructural features of the articular chondrocytes (TEM)", "setting": "[3]; 1–4 weeks post-treatment", "value": "did not significantly differ from those seen in the joints of normal wildtype mice"}, {"measurement": "% of total at indicated HS scores, HS 2", "setting": "[3]; 2 wk treatment", "value": 100, "unit": "%"}, {"measurement": "% of total at indicated HS scores, HS 3", "setting": "[3]; 2 wk treatment", "value": 0, "unit": "%"}, {"measurement": "% of total at indicated HS scores, HS 4", "setting": "[3]; 2 wk treatment", "value": 0, "unit": "%"}, {"measurement": "Mean HS ± SEM", "setting": "[3]; 2 wk treatment", "value": "2.37 ± 0.12"}, {"measurement": "% of total at indicated HS scores, HS 2", "setting": "[3]; 3 wk treatment", "value": 75, "unit": "%"}, {"measurement": "% of total at indicated HS scores, HS 3", "setting": "[3]; 3 wk treatment", "value": 25, "unit": "%"}, {"measurement": "% of total at indicated HS scores, HS 4", "setting": "[3]; 3 wk treatment", "value": 0, "unit": "%"}, {"measurement": "Mean HS ± SEM", "setting": "[3]; 3 wk treatment", "value": "2.50 ± 0.20"}, {"measurement": "HS of synovitis, cartilage degradation and bone erosion", "setting": "[3]; 4 weeks post-treatment, n=4/group", "value": "protective effect"}, {"measurement": "% of total at indicated HS scores, HS 2", "setting": "[3]; 4 wk treatment", "value": 75, "unit": "%"}, {"measurement": "% of total at indicated HS scores, HS 3", "setting": "[3]; 4 wk treatment", "value": 25, "unit": "%"}, {"measurement": "% of total at indicated HS scores, HS 4", "setting": "[3]; 4 wk treatment", "value": 0, "unit": "%"}, {"measurement": "Mean HS ± SEM", "setting": "[3]; 4 wk treatment", "value": "2.62 ± 0.31"}, {"measurement": "number of inflammatory cells in the synovium", "setting": "[3]; as early as 1 week after initiation of treatment", "value": "reduced"}, {"measurement": "joints either normal or only mildly affected by arthritis", "setting": "[3]; first two weeks after peptide treatment", "value": 100, "unit": "%"}, {"measurement": "chondrocyte necrobiosis as well as bone erosions", "setting": "[3]; histopathologic analysis of joints", "value": "significantly reduced"}, {"measurement": "joints either normal or only mildly affected by arthritis", "setting": "[3]; last two weeks after peptide treatment", "value": 75, "unit": "%"}]}]}
